Assay results published in patent US4855290A (priority 1985, dated 1989).
pEC50, pIC50: −log10 of the molar value. Several values for one entry are separate records, joined by “and”; a condition that tells them apart may be missing. Equal entries are not always repeated. Entries after “also recorded” stand apart in the source; their conditions may differ. Where two headings read alike, the source gives them in different places.

Experiments:
[1] = oxotremorine 0.5 mg./kg., ip; cited from earlier work
[2] = oxotremorine 0.5 mg./kg., ip; cited from earlier work; remark: listed apart in the source
[3] = mouse, icv; cited from earlier work
[4] = test system: acetyl- and butyryl-cholinesterase; test: Resistance to cholinesterases; assay type: in vitro ADME
[5] = target: central muscarinic receptors (M1) (Rattus norvegicus, UniProt P08482); test: biochemical; assay type: binding; parameters: IC50^1 :IC50^2: unit not given beside the values
central muscarinic receptors (M1), sequence (P08482 whole entry): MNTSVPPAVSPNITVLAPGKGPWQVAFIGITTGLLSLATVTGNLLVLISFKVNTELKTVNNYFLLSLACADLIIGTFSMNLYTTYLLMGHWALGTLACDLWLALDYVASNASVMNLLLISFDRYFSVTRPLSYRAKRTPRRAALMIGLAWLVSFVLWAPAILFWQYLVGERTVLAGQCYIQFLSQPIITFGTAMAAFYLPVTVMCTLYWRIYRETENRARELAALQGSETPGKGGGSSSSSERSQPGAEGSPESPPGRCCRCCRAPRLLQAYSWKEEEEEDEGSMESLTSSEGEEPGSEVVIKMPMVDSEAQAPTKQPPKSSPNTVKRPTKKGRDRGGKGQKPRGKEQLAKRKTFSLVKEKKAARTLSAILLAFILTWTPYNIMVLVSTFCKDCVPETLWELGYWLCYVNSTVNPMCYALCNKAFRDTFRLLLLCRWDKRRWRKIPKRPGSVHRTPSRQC

[6] = in vivo; settings: rat, ip
[7] = target: central muscarinic receptors (M1 and M2); assay type: binding, rat
[8] = Tremor induced by AF102B, mice; assay type: in vivo; settings: ip
Description: (§1) rats; these effects are observed around the toxic doses of the compound

[9] = mice
[10] = test system: Guinea-pig ileum; test: Guinea-pig ileum induced contractions
Description: Guinea-pig ileum induced contractions
*This dose is the IC50 for inhibiting acetylcholineinduced
contractions of the ileum.

[11] = Tremor induced by AF102B, rats; assay type: in vivo
Description: as §1

[12] = assay type: in vivo, mice; settings: for dose level for antinociceptive activity: mouse, in vivo
[13] = test system: Guinea-pig ileum; test: Guinea-pig ileum induced contractions; settings: ileum contraction
[14] = in vivo; settings: mouse, po
[15] = Acute oral toxicity of AF102B in rats; assay type: in vivo, rats (Charles River CD strain)
Description: The test material was prepared at various concentrations in saline and was administered at a constant volume-sosage of 5 ml./kg. Dosages were selected according to the availability of the test material. Mortality and signs of reaction to treatment were recorded during a 14-day period. Early decedents and surviving animals were subjected to necropsy on Day 15.

[16] = Acute toxicity in mice, ip; assay type: in vivo; settings: 80 mg./kg.
[17] = parameters: species or system Male Sprague-Dawley rats; settings: rat, in vivo
[18] = Hypothermia-inducing activity in rats
[19] = Morris Swimming Maze in AF64A- and CSF-injected rats; assay type: in vivo, male Sprague Dawley rats; settings: ip
Description: 38 male Sprague Dawley rats (raised by Charles River) 5-6 months old with an average weight of 500 g. were used. The rats were housed in groups of 5 and were given free access to food and water. Testing was carried out in a round white metal tub 1.4 m. diameter and 0.4 m. deep. The tub was filled with water, made opaque by milk powder to the level of 18 cm. A platform of 12 cm. diameter and at a height of 16 cm. was placed in the tub 2 cm. below water level. The platform was covered with gauze to prevent the animal from slipping back into the water after reaching the platform.
Prior to testing, the rat was placed on the platform for 120 secs., placed gently into the water, facing the wall of the pool, at one of four starting locations (north, south, east or west) around the pool's perimeter. Within each block of four trials, each rat was started at each of the four starting locations, with the sequence of starting locations randomly selected. Testing was carried out on 2 consecutive days with each rat submitted daily to eight trials. During trials 1-12 the platform was located in the center of the south-east quadrant and during trials 13-16 the platform was transferred to the center of the north-west quadrant. If in a particular trial the rat found the platform, it was permitted to remain on it for 60 secs. before starting the next trial. […] The latency to find the platform was measured.
For drug testing, rats were injected with AF64A or CSF (3 nmole/2 ul/side) as described in Experiment 2, above. The rats were subjected first to a step-through learning procedure (see Experiment 1, above) and were 3-3.5 months after injection when tested in the water maze. The rats were divided into 4 groups; 18 CSF-injected rats were treated either with physostigmine (0.1 mg./kg. ip) (10 rats) or with saline (8 rats). 20 AF64A-injected rats were divided similarly. The rats were injected with physostigmine immediately before testing on each day.
Forty male Sprague-Dawley rats (obtained from Charles River Breeding Laboratories U.K.), 5-6 months old, weighing 450-580 g. during the experiment served as subjects. Rats were housed in groups of 5 and were given free access to food and water. 2.5-3.5 months before behavioral testing, rats were injected with AF64A (3 nmole/2 ul/side) (20 rats-group 1) or CSF (20 rats-group 2) as described in the surgery procedure.
Each of the injected groups was randomly subdivided into two equal size treatment groups.

[20] = rats, ip
[21] = parameters: species or system Sprague Dawley rats; settings: rat, in vivo, ip
[22] = test system: Salmonella typhimurium, strains TA-15365, TA-100, TA1538, TA-98 and TA-1537; test: Mutagenic activity (pour-plate assays)
[23] = in vivo; settings: mouse, iv

For `CN1CCN(CC(=O)N2c3ccccc3C(=O)Nc3cccnc32)CC1` [PNZ, pirenzepine], the “dose required to reduce the effect of oxotremorine by 50%, tremor” value [1] is listed as 5.8 ug/mouse, icv, the “dose required to reduce the effect of oxotremorine by 50%, antinociception” value [2] is listed as 4.6 ug/mouse, icv and the “minimum effective dose producing impaired passive avoidance learning” value [3] is listed as 0.1 ug/mouse, icv.
With `CC1OC2(CS1)CN1CCC2CC1` (stereo not drawn) [(Ia), 2-methylspiro(1,3-oxathiolan-5,3')quinuclidine] the “destruction by acetyl- and butyryl-cholinesterase” value [4] was “not destroyed” and the “pharmacological activity (muscarinic)” value [5] was “muscarinic agonist with a high specificity for the central nervous system”.
Compound `C[C@H]1O[C@]2(CS1)CN1CCC2CC1` (relative stereo) [AF102B] has an LD50 at 336 h ([6]; LD50 (95% C.L.), rats) of 77.6 mg/kg, an LD50 at 336 h ([6]; LD50, rats) of 77.6 mg/kg and a pIC50 ([7]; read-out: IC50^2 for displacement of [^3 H]-QNB) of 5.00. For the same compound, the pEC50 ([7]; summary table, read-out: EC50, [^3 H]--QNB-binding) was 5.00, the tremor-inducing dose [8] was 60 to 80 mg/kg and the Mortality ([9]; 31 mg./kg. i.v.) was 3/6. For the same compound, the Mortality ([9]; 33 mg./kg. i.v.) was 1/6, the Mortality ([9]; 35 mg./kg. i.v.) was 5/6 and the Mortality ([9]; 37 mg./kg. i.v.) was 6/6. For the same compound, the Mortality ([9]; 39 mg./kg. i.v.) was 6/6, the “LD50 (95% C.I.)” value ([9]; intravenous) was 33(31-35) mg./kg and the “muscarinic agonist activity (TABLES 1 and 2)” value ([10]; binding and ileum) was “potent muscarinic agonist”. The Type of activity ([10]; guinea-pig ileum) was “agonist”, the tremor-inducing dose ([11]; ip) was greater than 78 mg/kg and the tremor-inducing dose ([11]; po) was greater than 100 mg/kg. The “antinociceptive effect at highest non-lethal doses” value ([12]; mice, 60 mg./kg. p.o. and 40 mg./kg. i.p., vs codeine phosphate and oxotremorine) was “not fully developed at 60 mg./kg. p.o. and 40 mg./kg. i.p; also recorded: remained obviously weaker than those of codeine phosphate and oxotremorine”, the “dose level for antinociceptive activity” value ([12]; ip) was greater than 10 mg/kg and the “dose level for antinociceptive activity” value ([12]; po) was “greater than 20 mg./kg”. For the same compound, the “onset of action following per os administration” value ([12]; po, analgesia, hypothermia and lethal dose level tests) was 10 to 15 min, the pEC50 [13] was 5.40 and the LD50 [14] was 92 mg/kg. The deaths ([15]; oral) was “deaths occurred at all four dose-levels studied, within three hours 30 minutes after dosing”, the necropsy observations ([15]; oral) was “a single case of haemorrhagic contents and occasional congested gastric mucosa was observed; also recorded: Necropsy of surviving animals did not reveal any abnormalities” and the “principal signs of reaction to treatment” value ([15]; oral) was “clonic convulsions, tremor, salivation, urogenital staining, diarrhoea and pigmented orbital secretion”. The “recovery and bodyweight of surviving animals” value ([15]; oral) was “all clinical signs of reaction to treatment were resolved by twenty four hours after dosing; also recorded: Surviving animals generally made expected bodyweight gains”, the LD50 at 336 h ([15]; rat, in vivo, po) was greater than 156 mg/kg and the death of mice [16] was “All mice died”. For the same compound, the duration of action [17] was “very long beneficial effect; also recorded: long duration of action”, the “retention latency during extinction+latent extinction” value [17] was “No significant differences” and the “reversal of AF64A-induced memory impairments in passive avoidance” value [17] was “could be reversed; also recorded: reverses memory impairments in AF64A-treated rats”. For the same compound, the Initial latency ([17]; ip) was 16.71 ± 4.77 s and 11.86 ± 1.23 s and 19.71 ± 5.39 s, the Initial-test latency ([17]; ip) was 18.40 ± 3.74 s and 15.30 ± 2.83 s and the Retention-test latency ([17]; ip) was 330.57 ± 75.55 s and 348.14 s and 551.71 s and 514.10 ± 38.21 s and 447.60 ± 58.09 s. For the same compound, the “retention latency during extinction” value ([17]; ip) was “significantly longer, F(1,36)=31.45, p<0.01; also recorded: significantly improved; also recorded: increased from the first to the fourth trial and then decreased”, the “retention-test differences between doses” value ([17]; ip) was “no significant differences were found during the 24 hr. retention-test between the different doses of AF102B” and the Retention-test latency ([17]; po) was 524.55 ± 45.60 s and 600 s. For the same compound, the “retention of passive avoidance (statistics)” value ([17]; po) was “significantly longer [F(1,35)=28.46; p<0.001]; also recorded: significantly improved; also recorded: no significant difference between the AF102B-treated-CSF-injected group and the saline-treated-CSF-injected group; also recorded: significantly longer [F(1,18)=65.71; p<0.001]; also recorded: that of the CSF-injected group did not significantly change”, the cholinomimetic manifestation ([18]; AF102B at 80 mg./kg. p.o. and 60 mg./kg. i.p., oxotremorine 3.2 mg./kg. p.o. or 1.2 mg./kg. i.p.) was “Slight diarrhea was the single cholinomimetic manifestation” and the “dose level for hypothermia inducing activity” value ([18]; i.p.) was greater than 15 mg/kg. For the same compound, the “dose level for hypothermia inducing activity” value ([18]; p.o.) was “greater than 40 mg./kg”, the “effect in Morris Swimming Maze” value ([19]; AF102B 1 mg./kg., physostigmine 0.1 mg./kg.) was “counteracted; also recorded: reverses memory impairments in AF64A-treated rats; also recorded: definitely improved the memory deficits induced by AF64A; also recorded: significant decrease in escape latency” and the “effective dose, Morris Swimming Maze” value ([19]; AF64A rats) was 1 mg/kg. The “principal signs of reaction to treatment” value [20] was “spastic and tonic convulsions, tremors, tachypnoea and dyspnoea, decreased motor activity, slight to very strong salivation and urination”, the deaths ([20]; 20.0-187.0 mg./kg.) was “deaths occurred at the three highest dose levels (61, 107, 187 mg./kg.), within twenty minutes after dosing” and the slope ([20]; acute toxicity curve) was 83 °. The LD50 ([20]; 20160 min) was 78 mg/kg, the Mortality (mice, 64 mg./kg. per os) was 0/5 and the Mortality (mice, 71 mg./kg. per os) was 0/5. For the same compound, the Mortality (mice, 80 mg./kg. per os) was 2/5, the Mortality (mice, 90 mg./kg. per os) was 2/5 and the Mortality (mice, 101 mg./kg. per os) was 3/5. The Mortality (mice, 113 mg./kg. per os) was 4/5, the “absorption by the enteric route” value (mice, inferred from i.v./oral LD50 ratio) was “efficient, rapid and apparently unaltered absorption” and the “LD50 (95% C.I.)” value (mice, oral) was 92(74-116) mg./kg. For the same compound, the “Signs in reaction to treatment” value (mouse, in vivo) was “slightly enhanced intensity”, the “effects considered characteristic of parasympatho- or cholinomimetic activity” value (mouse, in vivo) was “none of the test animals exhibited effects considered characteristic of parasympatho- or cholinomimetic activity” and the “effect in 8-Arm Radial Maze” value [21] was “counteracted; also recorded: reverses memory impairments in AF64A-treated rats; also recorded: improves AF64A-induced memory impairments; also recorded: significant (p<0.001, F=17.5) decrease in the mean number of errors; also recorded: improved performance only when rats were previously injected icv with AF64A; also recorded: memory impairment could be reversed”. For the same compound, the “effective dose, 8-Arm Radial Maze” value [21] was 5 mg/kg, the pEC50 [5] was 6.40 and the pIC50 [5] was 6.40. For the same compound, the “IC50^1 :IC50^2” value ([5]; PNZ:QNB displacement ratio) was 0.04, the inhibition of growth ([22]; 1000 ug. per plate) was “No inhibition of growth” and the “mutagenic activity (reversion to prototrophy)” value ([22]; five strains, presence or absence of S-9 mix) was “No increases in reversion to prototrophy; also recorded: devoid of mutagenic activity; also recorded: not mutagenic up to high concentrations”. For the same compound, the LD50 [23] was 33 mg/kg.
